Laboratory results published in US20220324835A1 (Nurix Therapeutics, Inc., priority 2018, published 2022).
Like-named read-outs stand apart in the source and are kept apart here.

What was measured:
Format in all cases: cell-based
T-cell = experiment: IL-2 secretion from T-cells stimulated with anti-CD3 antibody alone (Biological Example 2); conditions: primary human total T-cells, read-out: IL-2 secretion, Anti-CD3 stimulation, fold change over baseline; for fold induction at 1 µM: 1 μM compound; for fold induction at 8 µM: 8 μM compound
primary human NK cells = experiment: NK cell activation assessed by cytokine secretion (coculture with K562 NucRed target cells); conditions: K562, NK cells cocultured with K562 NucRed, 1:1 E/T; for fold induction at 0.625 µM: 0.625 μM compound; for fold induction at 2.5 µM: 2.5 μM compound; for fold induction at 10 µM: 10 μM compound
In short: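 Primary NK cells from donor PBMC, IL-2 (60 ng/mL) overnight, then Cbl-b inhibitor (e.g. 10, 1 or 0.1 μM; DMSO <0.1%) for 1 h before 6 h coculture with K562 NucRed at effector:target ratios such as 5:1, 1:1 or 1:5. Supernatant IFNγ, TNFα, MIP1β measured by ELISA or Luminex; fold change over inhibitor-free baseline, >2.0-fold positive.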

primary human B cells = experiment: B cell activation assay (CD69 on anti-IgM stimulated B cells); conditions: AUC of dose response curve (10 μM to 1 nM) of CD69 MFI normalized to DMSO control
In short: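 Negatively selected PBMC-derived B cells (>95% CD20+) treated with Cbl-b inhibitors from 10 μM to 1 nM (DMSO <0.5%) and stimulated with anti-IgM for 20 h at 37° C. CD69 MFI on CD20+ IgD+ cells by flow cytometry; dose-response AUC normalized to DMSO plus 2.5 μg/mL anti-IgM-F(ab′)2, binned A-D.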

[1] = read-out: IFNγ secretion, fold change over baseline
[2] = read-out: TNFα secretion, fold change over baseline

Cn1cnnc1C(F)(F)[C@](C)(F)c1cccc(N2Cc3c(cc(CN4CC[C@@H](C#N)C4)cc3C(F)(F)F)C2=O)c1 [Compound 455, (R)-1-((3-oxo-2-(3-((R)-1,1,2-trifluoro-1-(4-methyl-4H-1,2,4-triazol-3-yl)propan-2-yl)phenyl)-7-(trifluoromethyl)isoindolin-5-yl)methyl)pyrrolidine-3-carbonitrile] gave a fold induction at 1 µM (T-cell) of 0.151 to 0.2, a fold induction at 8 µM (T-cell) of over 0.201 and a fold induction at 0.625 µM (primary human NK cells; [1]) of over 5. The fold induction at 0.625 µM (primary human NK cells; [2]) was 1.01 to 2, the fold induction at 2.5 µM (primary human NK cells; [1]) was over 5 and the fold induction at 2.5 µM (primary human NK cells; [2]) was 2.01 to 5. For the same molecule, the fold induction at 10 µM (primary human NK cells; [1]) was over 5, the fold induction at 10 µM (primary human NK cells; [2]) was 2.01 to 5 and the “CD69 MFI AUC” value (primary human B cells) was “C (C indicates 1.01-1.50)”.

C[C@H](Cc1nncn1C)c1cccc(NC(=O)c2cc3cc(N4CCNCC4)ccc3cn2)c1 [Compound 472, N-{3-[(2R)-1-(4-methyl-4H-1,2,4-triazol-3-yl)propan-2-yl]phenyl}-6-(piperazin-1-yl)isoquinoline-3-carboxamide] showed a fold induction at 1 µM (T-cell) of 0.101 to 0.15, a fold induction at 8 µM (T-cell) of 0.101 to 0.15 and a fold induction at 0.625 µM (primary human NK cells; [1]) of under 1. For the same molecule, the fold induction at 0.625 µM (primary human NK cells; [2]) was under 1, the fold induction at 2.5 µM (primary human NK cells; [1]) was 1.01 to 2 and the fold induction at 2.5 µM (primary human NK cells; [2]) was under 1. The fold induction at 10 µM (primary human NK cells; [1]) was 2.01 to 5, the fold induction at 10 µM (primary human NK cells; [2]) was 1.01 to 2 and the “CD69 MFI AUC” value (primary human B cells) was “C (C indicates 1.01-1.50)”.

Cn1cnnc1CC1(c2cccc(NC(=O)c3cc(CN4CCC5(CC5)C4)cc(C4CC4)n3)c2)COC1 [Compound 519, 4-((5-azaspiro[2.4]heptan-5-yl)methyl)-6-cyclopropyl-N-(3-(3-((4-methyl-4H-1,2,4-triazol-3-yl)methyl)oxetan-3-yl)phenyl)picolinamide] gave a fold induction at 1 µM (T-cell) of over 0.201, a fold induction at 0.625 µM (primary human NK cells; [1]) of over 5 and a fold induction at 0.625 µM (primary human NK cells; [2]) of over 5. It also gave a fold induction at 2.5 µM (primary human NK cells; [1]) of over 5, a fold induction at 2.5 µM (primary human NK cells; [2]) of 1.01 to 2 and a fold induction at 10 µM (primary human NK cells; [1]) of over 5. For the same molecule, the fold induction at 10 µM (primary human NK cells; [2]) was 2.01 to 5 and the “CD69 MFI AUC” value (primary human B cells) was “D (D indicates ≥1.51)”.

In the case of Cn1cnnc1CC1(c2cccc(N3Cc4c(cc(CN5CCC6(CC6)C5)cc4C(F)(F)F)C3=O)c2)COC1 [Compound 520, 6-((5-azaspiro[2.4]heptan-5-yl)methyl)-2-(3-(3-((4-methyl-4H-1,2,4-triazol-3-yl)methyl)oxetan-3-yl)phenyl)-4-(trifluoromethyl)isoindolin-1-one], the fold induction at 1 µM (T-cell) is reported as over 0.201, the fold induction at 0.625 µM (primary human NK cells; [1]) is reported as over 5 and the fold induction at 0.625 µM (primary human NK cells; [2]) is reported as 2.01 to 5. The fold induction at 2.5 µM (primary human NK cells; [1]) was over 5, the fold induction at 2.5 µM (primary human NK cells; [2]) was over 5 and the fold induction at 10 µM (primary human NK cells; [1]) was over 5. For the same molecule, the fold induction at 10 µM (primary human NK cells; [2]) was 2.01 to 5 and the “CD69 MFI AUC” value (primary human B cells) was “D (D indicates ≥1.51)”.
